{"source": "paper PMC2774819", "about": "(Chemistry & biology, 2008)", "molecules": {"B1": {"name": "N-terminal 6 x His-tagged ferredoxin MycCII (natural protein, Micromonospora griseorubida, UniProt Q83WF4 1-74, looked up)", "chain": "MRIVLDAERCVGAGQCEATAPELFTQGDDGLGLVRDRPVTPELLGPAREAVDRCPVRAIRIESSVRTGWARGAG"}}, "key": {"MycG [1]": {"biological_target": "T1, MycG (Micromonospora griseorubida, UniProt Q59523)", "T1 sequence (Q59523 1-397)": "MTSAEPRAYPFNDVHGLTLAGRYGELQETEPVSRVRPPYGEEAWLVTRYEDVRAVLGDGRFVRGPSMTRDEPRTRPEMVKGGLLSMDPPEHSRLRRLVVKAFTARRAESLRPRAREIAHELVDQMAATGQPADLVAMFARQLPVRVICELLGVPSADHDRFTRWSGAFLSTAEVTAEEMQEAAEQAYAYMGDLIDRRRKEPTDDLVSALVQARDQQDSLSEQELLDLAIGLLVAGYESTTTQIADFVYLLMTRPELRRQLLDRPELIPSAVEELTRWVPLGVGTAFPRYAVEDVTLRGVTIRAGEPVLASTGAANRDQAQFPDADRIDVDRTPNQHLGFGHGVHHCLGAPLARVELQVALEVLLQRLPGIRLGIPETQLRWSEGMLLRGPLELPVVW", "assay": "spectral substrate binding assay"}, "MycG [2]": {"biological_target": "T1, MycG", "assay": "spectral substrate binding assay", "remark": "listed apart in the source"}, "[3]": {"biological_target": "MycCI cytochrome P450, C-terminal 6 x His tagged (Micromonospora griseorubida) (UniProt Q83WF5)", "assay": "spectral ferredoxin titration"}, "MycCI": {"biological_target": "T2, MycCI (Micromonospora griseorubida, UniProt Q83WF5)", "T2 sequence (Q83WF5 1-388)": "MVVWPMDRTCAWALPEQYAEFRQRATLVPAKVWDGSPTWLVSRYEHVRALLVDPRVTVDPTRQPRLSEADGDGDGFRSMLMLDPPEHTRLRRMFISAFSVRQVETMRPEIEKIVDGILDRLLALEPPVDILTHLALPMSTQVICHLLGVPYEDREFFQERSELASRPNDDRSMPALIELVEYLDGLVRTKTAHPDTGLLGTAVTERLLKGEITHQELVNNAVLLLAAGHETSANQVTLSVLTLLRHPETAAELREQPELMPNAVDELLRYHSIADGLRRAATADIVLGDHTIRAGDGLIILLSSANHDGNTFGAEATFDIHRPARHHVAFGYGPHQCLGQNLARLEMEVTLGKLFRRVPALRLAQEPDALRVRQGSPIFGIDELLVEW", "assay": "spectral substrate binding assay"}, "[4]": {"biological_target": "T3, MycCI cytochrome P450, C-terminal 6 x His tagged (Micromonospora griseorubida, UniProt Q83WF5 1-388)", "T3 sequence (looked up)": "T2 sequence (Q83WF5 1-388)", "assay": "spectral ferredoxin titration"}}, "note": "Like-named read-outs stand apart in the source and are kept apart here."}
{"molecule": "CC[C@H]1OC(=O)/C=C/[C@H](C)[C@@H](O[C@@H]2O[C@H](C)C[C@H](N(C)C)[C@H]2O)[C@@H](C)C[C@@H](C)C(=O)/C=C/C=C/[C@]1(O)CO[C@@H]1O[C@H](C)[C@@H](O)[C@@H](OC)[C@H]1OC", "note": "[M-V, mycinamicin V]", "values": [{"measurement": "Kd", "setting": "MycG [1]", "result": "10.4 ± 0.2", "unit": "µM"}]}
{"molecule": "CC[C@H]1OC(=O)/C=C/[C@H](C)[C@@H](O[C@@H]2O[C@H](C)C[C@H](N(C)C)[C@H]2O)[C@@H](C)C[C@@H](C)C(=O)/C=C/[C@H]2O[C@@H]2[C@]1(O)CO[C@@H]1O[C@H](C)[C@@H](O)[C@@H](OC)[C@H]1OC", "note": "[M-II, mycinamicin II]", "values": [{"measurement": "Kd", "setting": "MycG [2]", "result": "71.5 ± 8.4", "unit": "µM"}]}
{"molecule": "CC[C@H]1OC(=O)/C=C/[C@H](C)[C@@H](O[C@@H]2O[C@H](C)C[C@H](N(C)C)[C@H]2O)[C@@H](C)C[C@@H](C)C(=O)/C=C/C=C/[C@@H]1CO[C@@H]1O[C@H](C)[C@@H](O)[C@@H](OC)[C@H]1OC", "note": "[M-IV, mycinamicin IV]", "values": [{"measurement": "Kd", "setting": "MycG [2]", "result": "0.7 ± 0.1", "unit": "µM"}]}
{"molecule": "spinach ferredoxin (from UniProt P00221 51-147) (natural protein)", "values": [{"measurement": "Kd", "setting": "[3]", "result": 149, "unit": "µM"}]}
{"molecule": "CC[C@H]1OC(=O)/C=C/[C@@H](C)[C@H](O[C@H]2O[C@@H](C)C[C@@H](N(C)C)[C@@H]2O)[C@H](C)C[C@@H](C)C(=O)/C=C\\C=C\\[C@H]1C", "note": "[M-VIII, mycinamicin VIII]", "values": [{"measurement": "Kd", "setting": "MycCI", "result": "28.1 ± 3.2", "unit": "µM"}]}
{"molecule": "B1", "values": [{"measurement": "Kd", "setting": "[4]", "result": "7 ± 0.1", "unit": "µM"}]}
